Experimental data published in PubChem BioAssay AID2060609 (Molecular Pharmacology Branch, DTP, NCI, 2025).
“And” between values parts separate entries of the source, which are not always exact repeats. Equal entries are not always repeated.

Tested on: 855422-203-R-J1-PDC complex spheroids, viability
Test: Anticancer human tumor 855422-203-R-J1-PDC patient-derived bladder carcinoma cell line growth inhibition [CLK]
Settings: for viability, T/C: stronger effect = lower value
Summary of the method: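 Multi-cell-type spheroids combined patient-derived tumor cells with HUVEC endothelial cells and human mesenchymal stem cells. Paired agents were dosed in half-log steps down from about clinical Cmax, or from 10 microM where Cmax was unknown.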
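Also: spheroids exposed to drugs for seven days before readout.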
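For viability, T/C in this document: 100% = DMSO vehicle control wells.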

`NC(=O)C(=Cn1cnc(-c2cc(C(F)(F)F)cc(C(F)(F)F)c2)n1)c1cncnc1` was tested, and the viability, T/C (compound 0.00949 µM) was 133% and 162%, the viability, T/C (compound 0.03 µM) was 110% and 130% and the viability, T/C (compound 0.0949 µM) was 30.4% and 25.3%. The viability, T/C (compound 0.3 µM) was 11.7% and 9.71%, the viability, T/C (compound 0.949 µM) was 10.5% and 7.35% and the viability, T/C (compound 3 µM) was 4.97% and 5%. For the same compound, the IC50 (curve of compound) was 71.7 nM and 72.3 nM.
`CN1CCN(c2cc(C(=O)Nc3cc4cc(-c5cnn(C)c5)ccc4cn3)ccn2)CC1` was tested, and the viability, T/C (compound 0.1 µM) was 94% [middle of 12 runs], the viability, T/C (compound 0.316 µM) was 9.83% [middle of 12 runs] and the viability, T/C (compound 1 µM) was 0.34% [middle of 11 runs]. For the same compound, the viability, T/C (compound 3.16 µM) was 0.57% [middle of 11 runs], the viability, T/C (compound 10 µM) was 0.34% [middle of 11 runs] and the IC50 (compound alone, run of 07/31/2023) was 181 nM [middle of 9 runs].
Work on `CCc1c2c(nc3ccc(O)cc13)-c1cc3c(c(=O)n1C2)COC(=O)[C@]3(O)CC` + CNC(=O)c1ccc(Nc2nc(OC3CCCC3)c3c(-c4ccc5nc(C)oc5c4)c[nH]c3n2)c(OC)c1 yielded an IC50 (curve of first compound, second compound 0.0316 µM) of 3.92 nM, an IC50 (curve of first compound, second compound 0.1 µM) of less than 3.16 nM and an IC50 (curve of first compound, second compound 0.316 µM) of less than 3.16 nM. The IC50 (curve of first compound, second compound 1 µM) was less than 3.16 nM, the IC50 (curve of first compound, second compound 3.16 µM) was less than 3.16 nM and the IC50 (curve of first compound, second compound 10 µM) was less than 3.16 nM. For the same compound, the viability, T/C (second compound 0.0316 µM, first compound 0.00316 µM) was 58.1%, the viability, T/C (second compound 0.0316 µM, first compound 0.01 µM) was 14.6% and the viability, T/C (second compound 0.0316 µM, first compound 0.0316 µM) was 10.3%. It also gave a viability, T/C (second compound 0.0316 µM, first compound 0.1 µM) of 4.46%, a viability, T/C (second compound 0.0316 µM, first compound 0.316 µM) of 2.37% and a viability, T/C (second compound 0.0316 µM, first compound 1 µM) of 2.42%. The viability, T/C (second compound 0.1 µM, first compound 0.00316 µM) was 31.4%, the viability, T/C (second compound 0.1 µM, first compound 0.01 µM) was 13.2% and the viability, T/C (second compound 0.1 µM, first compound 0.0316 µM) was 8.17%. For the same compound, the viability, T/C (second compound 0.1 µM, first compound 0.1 µM) was 3.32%, the viability, T/C (second compound 0.1 µM, first compound 0.316 µM) was 2.65% and the viability, T/C (second compound 0.1 µM, first compound 1 µM) was 1.46%. For the same compound, the viability, T/C (second compound 0.316 µM, first compound 0.00316 µM) was 18.2%, the viability, T/C (second compound 0.316 µM, first compound 0.01 µM) was 11.9% and the viability, T/C (second compound 0.316 µM, first compound 0.0316 µM) was 6.3%. It also gave a viability, T/C (second compound 0.316 µM, first compound 0.1 µM) of 3.66%, a viability, T/C (second compound 0.316 µM, first compound 0.316 µM) of 2.03% and a viability, T/C (second compound 0.316 µM, first compound 1 µM) of 3.09%. The viability, T/C (second compound 1 µM, first compound 0.00316 µM) was 17.7%, the viability, T/C (second compound 1 µM, first compound 0.01 µM) was 10.2% and the viability, T/C (second compound 1 µM, first compound 0.0316 µM) was 7.3%. The viability, T/C (second compound 1 µM, first compound 0.1 µM) was 4.22%, the viability, T/C (second compound 1 µM, first compound 0.316 µM) was 2.1% and the viability, T/C (second compound 1 µM, first compound 1 µM) was 1.8%. It also gave a viability, T/C (second compound 3.16 µM, first compound 0.00316 µM) of 17.8%, a viability, T/C (second compound 3.16 µM, first compound 0.01 µM) of 12.4% and a viability, T/C (second compound 3.16 µM, first compound 0.0316 µM) of 7.84%. The viability, T/C (second compound 3.16 µM, first compound 0.1 µM) was 3.73%, the viability, T/C (second compound 3.16 µM, first compound 0.316 µM) was 2.41% and the viability, T/C (second compound 3.16 µM, first compound 1 µM) was 1.27%. For the same compound, the viability, T/C (second compound 10 µM, first compound 0.00316 µM) was 13.8%, the viability, T/C (second compound 10 µM, first compound 0.01 µM) was 11.1% and the viability, T/C (second compound 10 µM, first compound 0.0316 µM) was 7.08%. The viability, T/C (second compound 10 µM, first compound 0.1 µM) was 5.03%, the viability, T/C (second compound 10 µM, first compound 0.316 µM) was 3.52% and the viability, T/C (second compound 10 µM, first compound 1 µM) was 1.51%.
For `CCCS(=O)(=O)Nc1ccc(F)c(C(=O)c2c[nH]c3ncc(-c4ccc(Cl)cc4)cc23)c1F`, the viability, T/C (compound 0.0316 µM) was 101% and 114%, the viability, T/C (compound 0.1 µM) was 98.5% and 97.8% and the viability, T/C (compound 0.316 µM) was 112% and 118%. The viability, T/C (compound 1 µM) was 107% and 111%, the viability, T/C (compound 3.16 µM) was 109% and 119% and the viability, T/C (compound 10 µM) was 3.67% and 1.89%. The IC50 (curve of compound) was 5930 nM and 6040 nM.
In the case of `CC(=O)O[C@H]1C(=O)[C@@]2(C)[C@H]([C@H](OC(=O)c3ccccc3)[C@]3(O)C[C@H](OC(=O)[C@H](O)[C@@H](NC(=O)c4ccccc4)c4ccccc4)C(C)=C1C3(C)C)[C@]1(OC(C)=O)CO[C@@H]1C[C@@H]2O`, the viability, T/C (compound 0.0316 µM) is reported as 7.73% and 9%, the viability, T/C (compound 0.1 µM) is reported as 9.43% and 8.68% and the viability, T/C (compound 0.316 µM) is reported as 9.33% and 9.1%. For the same compound, the viability, T/C (compound 1 µM) was 8.48% and 7.37%, the viability, T/C (compound 3.16 µM) was 8.93% and 7.1% and the viability, T/C (compound 10 µM) was 9.93% and 9.02%. It also gave an IC50 (curve of compound) of less than 31.6 nM.
